The term IC50 denotes the midpoint of a concentration-inhibition curve.

Data on 19 molecules can be found in patent US7642277B2, “Non-nucleoside reverse transcriptase inhibitors” (Boehringer Ingelheim International GmbH, priority 2002, dated 2010).

Assay [1] deals with T1, HIV-1 RT enzyme (wild type) (Human immunodeficiency virus type 1 group M subtype B, UniProt P04585).
T1 construct: The reverse transcriptase (RT) enzyme assay has been adapted to a 96-well microtiter plate format
Briefly: Reverse transcriptase (RT) enzymatic assay (IC50), PicoGreen fluorescence, wild type. The format is biochemical. The conditions noted are these: RT enzymatic assay, wild type; read-out: IC50 WT. An outline of the steps: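 Enzyme at ≈10 nM in 50 mM Tris/HCl pH 7.8 with 60 mM NaCl, 2 mM MgCl2, 6 mM DTT, 2 mM GSH, 0.02% Chaps; 15 min preincubation with compound at room temperature, then substrate added and run 50 min at 37 °C. EDTA quench; product DNA read by PicoGreen fluorescence.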

Assay [2] has as its system HIV-1 resistant mutant K103N/Y181C in C8166 LTRluc cells. The assay is described as follows: C8166 HIV-1 luciferase assay (EC50), resistant mutant. Type of assay: cell-based. The conditions noted are these: Human immunodeficiency virus 1, C8166, read-out: EC50 K103N/Y181C. The source says:
(§1) C8166 HIV-1 Luciferase Assay (EC50)
(§2) Plasmid: pGL3 Basic LTR/TAR #12
(§3) C8166 cells are a human T-lymphotrophic virus type 1 immortalized but nonexpressing line of cord blood lymphocytes and are highly permissive to HIV-1 infection. The reporter cells were made by electroporating C8166 cells with pGL3 Basic LTR/TAR and then selecting positive clones with blasticidine. The clone C8166-LTRluc #A8-F5-G7 was selected by 3 consecutive rounds of limiting dilution under blasticidine selection.
(§4) Media: Complete media consisting of: RPMI 1640+10% FBS+10^−5 M
(§5) β-mercaptoethanol+10 μg/ml gentamycin. Cultures are maintained in complete media with 5 μg/ml blasticidine, however, selection is removed for the assay.
(§6) Luciferase Assay Protocol
(§7) Eleven serial dilutions of 2.5× are made at 8× desired final concentration in a 1 ml deep well titer plate (96 wells). The 12th well contains complete media with no inhibitor and serves as the positive control. All samples contain the same concentration of DMSO (≦0.1% DMSO). A 25 μl aliquot of inhibitor is added, to triplicate wells, of a 96 well tissue culture treated clear view black microtiter plate (Corning Costar catalogue # 3904). The last row is reserved for uninfected C8166 LTRluc cells to serve as the background blank control and the first row is media alone.
Count C8166 LTRluc cells and place in a minimal volume of complete RPMI 1640 in a tissue culture flask (ex. 30×10^6 cells in 10 ml media/25 cm^2 flask). […] Incubate cells for 1.5 hours at 37° C. on a rotating rack in a 5% CO2 incubator. Resuspend cells in complete RPMI to give a final concentration of 25,000-cells/175 μl. Add 175 μl of cell mix to wells of 96 well microtiter plate containing 25 μl 8× inhibitors. Add 25,000 uninfected C8166-LTRluc cells/well in 200 μl complete RPMI to last row for background control. Incubate cells at 37° C. in 5% CO2 incubator for 3 days.
(§8) Add 50 μl Steady Glo (luciferase substrate T1/2=5 hours Promega catalogue # E2520) to each well of the 96 well plate. Determine the relative light units (RLU) of luciferase using the BMG LUMlstar Galaxy luminometer. Plates are read from the bottom for 2 seconds per well with a gain of 240.
(§9) The level of inhibition (% inhibition) of each well containing inhibitor was calculated with the following equation: […]
The calculated % inhibition values were then used to determine EC50, slope factor (n) and maximum inhibition (Imax) by the non-linear regression routine NLIN procedure of SAS using the following equation:
(§10) Table legend: A=>100; B=100-50; C=<50; NT=not tested

Assay [3] deals with HIV-1 (wild type) in C8166 LTRluc cells. Briefly: C8166 HIV-1 luciferase assay (EC50), wild type. As to conditions: Human immunodeficiency virus 1, C8166 HIV-1 luciferase assay (no *). The format is cell-based.
Excerpt: as §1, §2
Plasmid is the pGL3 Basic Vector (a promoterless luciferase expression vector from Promega catalogue #E1751) with the addition of HIV-1 H×B2 LTR sequence from nucleotide −138 to +80 (Sca1-HindIII) upstream of the luciferase gene and the gene for blasticidine resistance cloned in.
as §3, §4, §5, §6
as §7, with “Serial dilutions of HIV-1 inhibitors compounds are prepared in complete media from 10 mM DMSO stock solutions. Eleven” for “Eleven”
Count C8166 LTRluc cells and place in a minimal volume of complete RPMI 1640 in a tissue culture flask (ex. 30×10^6 cells in 10 ml media/25 cm^2 flask). Infect cells with HIV-1 at a moi of 0.005. Incubate cells for 1.5 hours at 37° C. on a rotating rack in a 5% CO2 incubator. Resuspend cells in complete RPMI to give a final concentration of 25,000-cells/175 μl. Add 175 μl of cell mix to wells of 96 well microtiter plate containing 25 μl 8× inhibitors. Add 25,000 uninfected C8166-LTRluc cells/well in 200 μl complete RPMI to last row for background control. Incubate cells at 37° C. in 5% CO2 incubator for 3 days.
as §8, §9
The calculated % inhibition values were then used to determine EC50, slope factor (n) and maximum inhibition (Imax) by the non-linear regression routine NLIN procedure of SAS using the following equation: […]
The results are listed in Table 9 as IC50(nM) and EC50 (nM).
as §10

The target in assay [4] is T2, HIV-1 RT resistant mutant K103N/Y181C (Human immunodeficiency virus type 1 group M subtype B, UniProt P04585, K690N/Y768C).
T2 construct: The reverse transcriptase (RT) enzyme assay has been adapted to a 96-well microtiter plate format
The assay is described as follows: Reverse transcriptase (RT) enzymatic assay (IC50), PicoGreen fluorescence, resistant mutant. Type of assay: biochemical. On the procedure: Reverse Transcriptase (RT) Assays Enzymatic Assay (IC50)
The enzymatic assay employed is described as follows: The reverse transcriptase (RT) enzyme assay has been adapted to a 96-well microtiter plate format and uses PicoGreen™ as a fluorescent intercalator. More explicitly, the HIV-1 RT enzyme was thawed and appropriately diluted into Tris/HCl 50 mM pH 7.8 containing NaCl 60 mM, MgCl2∘6H2O 2 mM, DTT 6 mM, GSH 2 mM and 0.02% w/v Chaps to give ≈10 nM enzyme. To 10 μL of this enzyme solution was added 10 μL of inhibitor solution (40 μM to […] inhibitor in the same assay buffer as above containing 4% v/v DMSO). The plate was pre-incubated for 15 minutes at room temperature before proceeding to the next step. In this pre-incubation step, the highest and lowest inhibitor concentrations were 20 μM and 1.016 nM respectively and the concentration of DMSO was 2% v/v. Then the enzymatic reaction was initiated by addition of 20 μL of substrate solution. The final reaction mixture contained Tris/HCl 50 mM pH 7.8, NaCl 60 mM, MgCl2∘6H2O 2 mM, DTT 6 mM, GSH 2 mM, CHAPS 0.02% w/v, DMSO 1% v/v, poly rC 45 nM, dG15 4.5 nM, dGTP 3.6 μM, and ≈2.5 nM enzyme. In this incubation step, the highest and lowest inhibitor concentrations were 10 μM and 0.508 nM respectively. After addition of the substrate cocktail, the plate was covered with a plastic seal and incubated for 50 minutes at 37° C. in a dry incubator. The reaction was then quenched by addition of 5 μL of EDTA 0.5 M. The plate was shaken for 30 seconds at medium speed and incubated for 5 minutes at room temperature. Then 160 μL of PicoGreen™ 1:400 dilution from commercial stock (diluted in Tris 20 mM pH 7.5 with EDTA 1 mM) was added and the plate was shaken for 30 seconds and incubated for 10 minutes at room temperature. The plate was then analyzed using a POLARstar Galaxy fluorimeter (BMG Labtechnologies) with λex and λem of 485 nm and 520 nm respectively. […] Each row contained at its extremities a blank and a control well.
as §10

Take `Cc1nnc(SCC(=O)Nc2ccc(S(C)(=O)=O)cc2Cl)n1-c1ccc(C(C)(C)C)cc1Cl` [Entry 431]: the IC50 in assay [1] is less than 0.05 µM; in assay [4], 0.05 to 0.1 µM. The EC50 in assay [2] and in assay [3] was less than 0.05 µM in each case.
With `Cc1ccc(-n2nnnc2SCC(=O)Nc2ccc(C(=O)O)cc2Cl)c(Cl)c1` [Entry 503], the IC50 is less than 0.05 µM in assay [1] and greater than 0.1 µM in assay [4]. In addition, the EC50 in assay [2] was greater than 0.1 µM; in assay [3] it was less than 0.05 µM.
In the case of `Cc1ccc(-n2nnnc2SCC(=O)Nc2ccc(C(N)=O)cc2Cl)c(Cl)c1` [Entry 504], the results for the IC50 in assay [1] and in assay [4] were less than 0.05 µM and greater than 0.1 µM, respectively. The EC50 in assay [2] and in assay [3] was less than 0.05 µM throughout.
Regarding `Cc1ccc(-n2nnnc2SCC(=O)Nc2ccc(C(=O)O)cc2Br)c(Cl)c1` [Entry 505], the results for the IC50 in assay [1] and in assay [4] were less than 0.05 µM and greater than 0.1 µM, respectively. Moreover, the values for the EC50 in assay [2] and in assay [3] were greater than 0.1 µM and less than 0.05 µM, respectively.
For the molecule `Cc1ccc(-n2nnnc2SCC(=O)Nc2ccc(C(=O)O)cc2[N+](=O)[O-])c(Cl)c1` [Entry 507], the IC50 in assay [1] was less than 0.05 µM; in assay [4] it was greater than 0.1 µM. The results for the EC50 in assay [2] and in assay [3] were greater than 0.1 µM and less than 0.05 µM, respectively.
With `Cc1ccc(-n2nnnc2SCC(=O)Nc2ccc(C(N)=O)cc2[N+](=O)[O-])c(Cl)c1` [Entry 508], the IC50 in assay [1] was less than 0.05 µM; in assay [4], 0.05 to 0.1 µM. In addition, the EC50 in assay [2] and in assay [3] was less than 0.05 µM throughout.
Regarding `Cc1ccc(-n2nnnc2SCC(=O)Nc2ccc(S(C)(=O)=O)cc2Cl)c(Cl)c1` [Entry 509], the IC50 in assay [1] was less than 0.05 µM; in assay [4], greater than 0.1 µM. Further, the values for the EC50 in assay [2] and in assay [3] were greater than 0.1 µM and less than 0.05 µM, respectively.
As for `Cc1ccc(-n2nnnc2SCC(=O)Nc2ccc(-c3ccccc3)cc2Cl)c(Cl)c1` [Entry 510], the IC50 in assay [1] was less than 0.05 µM; in assay [4] it was 0.05 to 0.1 µM. Further, the figures for the EC50 in assay [2] and in assay [3] were greater than 0.1 µM and less than 0.05 µM, respectively.
For the molecule `Cc1ccc(-n2nnnc2SCC(=O)Nc2ccc(-c3ccccc3)cc2C)c(Cl)c1` [Entry 511], the IC50 was less than 0.05 µM in assay [1] and greater than 0.1 µM in assay [4]. Also, the EC50 was greater than 0.1 µM in assay [2] and less than 0.05 µM in assay [3].
Take `Cc1ccc(-n2nnnc2SCC(=O)Nc2ccc(-c3cccnc3)cc2Cl)c(Cl)c1` [Entry 512]: the IC50 was less than 0.05 µM in assay [1] and greater than 0.1 µM in assay [4]. For the same molecule, the EC50 is greater than 0.1 µM in assay [2] and less than 0.05 µM in assay [3].
With `CC(C)(C)c1ccc(-n2nnnc2SCC(=O)Nc2ccc(CCC(=O)O)cc2Cl)c(Cl)c1` [Entry 601], the IC50 is less than 0.05 µM in assay [1] and greater than 0.1 µM in assay [4]. The EC50 in assay [2] was greater than 0.1 µM; in assay [3] it was less than 0.05 µM.
For the molecule `CC(C)(C)c1ccc(-n2nnnc2SCC(=O)Nc2ccc([N+](=O)[O-])cc2Cl)c(Cl)c1` [Entry 602], the IC50 is less than 0.05 µM in assay [1] and greater than 0.1 µM in assay [4]. Besides, the values for the EC50 in assay [2] and in assay [3] were greater than 0.1 µM and 0.05 to 0.1 µM, respectively.
Consider `CC(C)(C)c1ccc(-n2nnnc2SCC(=O)Nc2ccc(S(N)(=O)=O)cc2Cl)c(Cl)c1` [Entry 604], for which the 50% inhibitory concentration (IC50) in assay [1] and in assay [4] was less than 0.05 µM throughout. Besides, the EC50 in assay [2] and in assay [3] was less than 0.05 µM throughout.
Consider `CC(C)(C)c1ccc(-n2nnnc2SCC(=O)Nc2ccc(S(=O)(=O)c3ccc(Cl)cc3)cc2Cl)c(Cl)c1` [Entry 605], for which the figures for the IC50 in assay [1] and in assay [4] were less than 0.05 µM and greater than 0.1 µM, respectively. In addition, the results for the EC50 in assay [2] and in assay [3] were greater than 0.1 µM and 0.05 to 0.1 µM, respectively.
As to `CC(C)(C)c1ccc(-n2nnnc2SCC(=O)Nc2ccc(S(=O)(=O)c3ccccc3)cc2Cl)c(Cl)c1` [Entry 606], the IC50 in assay [1] was less than 0.05 µM; in assay [4], 0.05 to 0.1 µM. For the same molecule, the EC50 in assay [2] is 0.05 to 0.1 µM; in assay [3], less than 0.05 µM.
As for `CC(C)S(=O)(=O)c1ccc(NC(=O)CSc2nnnn2-c2ccc(C(C)(C)C)cc2Cl)c(Cl)c1` [Entry 607], the IC50 in assay [1] was less than 0.05 µM; in assay [4], greater than 0.1 µM. Moreover, the EC50 in assay [2] is 0.05 to 0.1 µM; in assay [3] it was less than 0.05 µM.
For the molecule `CC(C)CS(=O)(=O)c1ccc(NC(=O)CSc2nnnn2-c2ccc(C(C)(C)C)cc2Cl)c(Cl)c1` [Entry 608], the IC50 in assay [1] is less than 0.05 µM; in assay [4], greater than 0.1 µM. Moreover, the EC50 in assay [2] was 0.05 to 0.1 µM; in assay [3] it was less than 0.05 µM.
As for `CN1CCN(c2ccc(NC(=O)CSc3nnnn3-c3ccc(C(C)(C)C)cc3Cl)c(Cl)c2)CC1` [Entry 610], the results for the IC50 in assay [1] and in assay [4] were less than 0.05 µM and greater than 0.1 µM, respectively. Moreover, the EC50 in assay [2] was greater than 0.1 µM; in assay [3], less than 0.05 µM.
Consider `CC(C)(C)c1ccc(-n2nnnc2SCC(=O)Nc2ccc(N3CCOCC3)cc2Cl)c(Cl)c1` [Entry 611], for which the IC50 was less than 0.05 µM in assay [1] and greater than 0.1 µM in assay [4]. For the same molecule, the results for the EC50 in assay [2] and in assay [3] were greater than 0.1 µM and less than 0.05 µM, respectively.
